Two molecules from patent publication US8975289B2, “Benzyl aralkyl ether compounds, method for preparing same, intermediate compounds, use of said compounds, method for treatment and/or prevention, pharmaceutical composition and medicament containing same” (priority 2009, dated 2015) can be followed below.

In brackets after ≈: the same amount, converted by molar mass.

What all share (format): cell-based
The test system of test [1] is Trichophyton mentagrophytes 2. Description: Broth microdilution MIC (M38-A), filamentous fungi, strain II. As for the experimental part:
(§1) For the experiments of the present invention, the dermatophyte-type fungi strains that were obtained from clinical isolates and laboratory isolates, as described in Table 2 as follows, were used:
(§2) The fungal strains were grown on agar potato medium in a sloping chute at a temperature of 30° C. for a period of 7 to 15 days.
(§3) For the experiments, the compound 1-[2-(2,4-dichlorophenyl)-2-{[4-(trifluoromethyl)benzyl]oxy}ethyl]-1H-imidazole (BL-123) in the form of its nitrate salt and miconazole nitrate were used. Both compounds were dissolved in dimethyl sulfoxide (DMSO) to match the final concentration of the compound equal to or less than 1%.
(§4) The methodology used to test the sensitivity of the agent was of broth microdilution according to the method described in Standard M38-A (Reference method for broth dilution tests for determining the sensitivity to antifungal therapy for filamentous fungi; NCCLS, volume 22 No. 16, USA, 2008) as follows.
(§5) The fungus was cultivated pursuant to item 4.1. To the tubes wherein the fungi were grown, 5 mL of saline solution were added in order to extract the fungi from the agar surface. Then, this homogeneous suspension was transferred to a new tube and the colony-forming units (CFUs) were quantified according to counting methods: (i) in Sabouraud dextrose agar plates and (ii) in a Neubauer chamber.
(§6) Then, the fungi strains listed in Table 2 were inoculated in duplicate in a 96-well plate. There were used inocula of from 2 to 6×10^3 CFU/mL of fungi, per well, in a total volume of 0.2 mL of RPMI-1640 (containing L-glutamine and without bicarbonate) buffered at pH 7.0 with MOPS (acid 3-(N-morpholine) 15 propanesulfonic). The procedure was performed in a laminar flow.
(§7) The compounds to be tested were added in a serial dilution, in duplicate, in final concentrations of 16 μg/mL; 8 μg/mL; 4 μg/mL; 2 μg/mL; 1 μg/mL; 0.5 μg/mL; 0.25 μg/mL; 0.125 μg/mL; 0.0625 μg/mL; or 0.03125 μg/mL in culture medium present in each well.
(§8) The incubation of fungi with these compounds was performed by 4, 5, 6 and 7 days at temperatures from 30 to 35° C.
(§9) The fungi quantification was carried out with the growth of fungi in each well being compared to the growth occurred in the negative control by means of a mirror reading. The negative control is represented by fungi grown in culture medium in the absence of the tested compounds. The methodology of this comparison is the numerical rating to which the microdilution well was submitted. […]

The next test concerns Microsporum canis 373. Description: Broth microdilution MIC (M38-A), filamentous fungi, strain VI. As for the experimental part:
as §1, §2, §3, §4, §5, §6, §7, §8, §9

For test [2], the system named is Candida parapsilosis 22019. Description: Broth microdilution MIC (M38-A), filamentous fungi test, strain IX. To be noted: 96 h; strain IX 22019, reading Day 4, average of four experiments. As for the experimental part:
as §1, §2, §3, §4
The fungus was cultivated pursuant to item 4.1. […] Then, this homogeneous suspension was transferred to a new tube and the colony-forming units (CFUs) were quantified according to counting methods: (i) in Sabouraud dextrose agar plates and (ii) in a Neubauer chamber. […]
The fungi quantification was carried out with the growth of fungi in each well being compared to the growth occurred in the negative control by means of a mirror reading. […]

The subject of test [3] is Trichophyton mentagrophytes 40004. The experiment in a line: Broth microdilution MIC (M38-A), filamentous fungi, strain X. As for the experimental part: as §1, §2, §3, §4, §5, §6, §7, §8, §9
For test [4], the system named is Microsporum gypseum 40051. Description: Broth microdilution MIC (M38-A), filamentous fungi, strain XII. Conditions: Nannizzia gypsea. As for the experimental part:
as §1, §2, §3, §4, §5, §6, §7, §8, §9

Test [5] concerns Trichophyton mentagrophytes 9533. The experiment in a line: Broth microdilution MIC (M38-A), filamentous fungi, strain XIII. As for the experimental part: as §1, §2, §3, §4, §5, §6, §7, §8, §9
Test [6] relates to Staphylococcus epidermidis 12228. Description: Broth microdilution MIC (M7-A6), bacteria, strain XVII. To be noted: Staphylococcus epidermidis; strain XVII 12228, 24 hours incubation; read-out: MIC. As for the experimental part:
(§10) For the experiments of the present invention (i) yeast strains obtained from clinical isolates and laboratory isolates, and (ii) bacterial strains obtained from laboratory isolates were used, as described in Table 5 as follows. […] The compounds were dissolved in dimethyl sulfoxide (DMSO) to match the final concentration of the compound equal to or less than 1%. The methodology used to test the sensitivity of the agent was broth microdilution according to the method described in Standard M7-A6 (Methodology of sensitivity tests to antimicrobial agents by dilution for bacteria with aerobic growth-6th Edition: NCCLS, volume 23, No. 2, USA, 2003), as follows. […] Then the suspensions were diluted in Mueller Hinton culture medium to a final concentration of 5×10^4CFU/mL. The diluted suspensions were inoculated in 0.1 mL in duplicates in […] plates. The procedure was performed in a laminar flow. […] Incubation of fungi with these compounds was carried out for 24 hours at a temperature of 30 to 35° C. […] We have agreed in this experiment that the turbid medium is the result of microbial growth and the presence of deposit and a clear medium represents the absence of microbial growth. The minimum inhibitory concentration (MIC) was defined as the lowest tested drug concentration that prevents any degree of bacterial growth.

For test [7], the system named is Staphylococcus aureus 6538. The experiment in a line: Broth microdilution MIC (M7-A6), bacteria, strain XVIII. To be noted: Staphylococcus aureus; strain XVIII 6538, 24 hours incubation; read-out: MIC. As for the experimental part: as §10
Where [8] appears, read: 96 h, strain II 2, reading Day 4, average of four experiments.
The mark [9] stands for this setting: 168 h, strain II 2, reading Day 7, average of four experiments.
[10] abbreviates: 96 h, strain VI 373, reading Day 4, average of four experiments.
The mark [11] stands for this setting: 168 h, strain VI 373, reading Day 7, average of four experiments.
Where [12] appears, read: 96 h, strain X 40004, reading Day 4, average of four experiments.
Where [13] appears, read: 168 h, strain X 40004, reading Day 7, average of four experiments.
Setting [14] is: 96 h, strain XII 40051, reading Day 4, average of four experiments.
Where [15] appears, read: 168 h, strain XII 40051, reading Day 7, average of four experiments.
Where [16] appears, read: 96 h, strain XIII 9533, reading Day 4, average of four experiments.
Where [17] appears, read: 168 h, strain XIII 9533, reading Day 7, average of four experiments.

For the molecule `FC(F)(F)c1ccc(COC(Cn2ccnc2)c2ccc(Cl)cc2Cl)cc1` (centres unmarked) [BL-123, 1-[2-(2,4-dichlorophenyl)-2-{[4-(trifluoromethyl)benzyl]oxy}ethyl]-1H-imidazole], the minimum inhibitory concentration (MIC) in test [1] (setting [8]) worked out at 4 µg/mL (≈ 9.63 µM); in test [1] (setting [9]), 4 µg/mL (≈ 9.63 µM); with Microsporum canis 373 (setting [10]) it was 0.125 µg/mL (≈ 0.301 µM); in the test with Microsporum canis 373 (setting [11]), 0.5 µg/mL (≈ 1.2 µM); in test [2], 2 µg/mL (≈ 4.82 µM); in test [3] (setting [12]), 0.25 µg/mL (≈ 0.602 µM). Also, the minimal inhibitory concentration (MIC) in test [3] (setting [13]) came out at 0.5 µg/mL (≈ 1.2 µM); in test [4] (setting [14]) it was 0.03 µg/mL (≈ 0.0722 µM); in test [4] (setting [15]) it was 0.03 µg/mL (≈ 0.0722 µM); in test [5] (setting [16]), 0.03 µg/mL (≈ 0.0722 µM); in test [5] (setting [17]) it was 0.125 µg/mL (≈ 0.301 µM); in test [6], 4 µg/mL (≈ 9.63 µM). Further, the minimal inhibitory concentration (MIC) in test [7] turned out to be 4 µg/mL (≈ 9.63 µM).
Regarding `Clc1ccc(COC(Cn2ccnc2)c2ccc(Cl)cc2Cl)c(Cl)c1` (centres unmarked) [Miconazole, miconazole, reference compound], the minimal inhibitory concentration (MIC) came to 1 µg/mL (≈ 2.4 µM) in test [1] (setting [8]); 1 µg/mL (≈ 2.4 µM) in test [1] (setting [9]); 0.5 µg/mL (≈ 1.2 µM) in the test with Microsporum canis 373 (setting [10]); 1 µg/mL (≈ 2.4 µM) against Microsporum canis 373 (setting [11]); 1 µg/mL (≈ 2.4 µM) in test [2]; 0.5 µg/mL (≈ 1.2 µM) in test [3] (setting [12]). Moreover, the minimum inhibitory concentration (MIC) came to 1 µg/mL (≈ 2.4 µM) in test [3] (setting [13]); 0.03 µg/mL (≈ 0.0721 µM) in test [4] (setting [14]); 0.06 µg/mL (≈ 0.144 µM) in test [4] (setting [15]); 0.06 µg/mL (≈ 0.144 µM) in test [5] (setting [16]); 0.125 µg/mL (≈ 0.3 µM) in test [5] (setting [17]); 2 µg/mL (≈ 4.81 µM) in test [6]. Besides, in test [7], the MIC came out at 2 µg/mL (≈ 4.81 µM).
